Experimental data: paper PMC12511766 (Frontiers in Pharmacology, 2025)
Where two headings read alike, the source gives them in different places.

How the values were obtained:
[1] = tested on: CYP3A; details: 2021, cited from earlier work
[2] = Adverse events (NCI CTCAE v5.0), Phase Ib study; type: in vivo, human; details: for Patients with AE leading to discontinuation of the drug / Patients with AE leading to dose interruption of the drug / Patients with AE leading to dose reduction of the drug / Patients with AE related to the drug: all enrolled patients
Text: Safety assessments consisted of monitoring and recording adverse events, including serious adverse events and adverse events of special interest, performing protocol-specified safety laboratory assessments, measuring protocol-specified vital signs, and conducting other protocol-specified tests that are deemed critical to the safety evaluation of the study. The adverse event severity grading scale for the NCI Common Terminology Criteria for Adverse Events (CTCAE) v5.0 was used for assessing adverse event severity. If daily dosing of ipatasertib was not tolerated, dosing with food might be used to alleviate gastrointestinal symptoms. […] For ipatasertib, with a starting dose of 300 mg, the first dose reduction was to 200 mg and the second down to 100 mg.

[3] = Steady-state plasma PK of ipatasertib and M1 (LC-MS/MS, noncompartmental analysis), Phase Ib study; type: in vivo, human; details: for Tmax: 300 mg, median (range)
Protocol: From Cycle 2 Day 1 onward, ipatasertib was taken orally and daily on Days 1–21 of each 28-day cycle. […] Additionally, fulvestrant 500 mg was given via intramuscular (IM) injection on Days 1 and 15 of Cycle 1, and then on Day 1 of each subsequent 28-day cycle. […] The initial safety follow-up extended through at least Day 15 of Cycle two for all patients. […] PK samples for ipatasertib and its major metabolite, M1 (G-037720), were collected at specified time points: 15 min pre-dose, 0.5, 1, 2, 3, 4, 6 h post-dose on Day 1 of Cycle 1, and Day 15 of Cycle 1, as well as 15 min pre-dose on Day 15 of Cycle 2 and 15 min pre-dose and 2 h post-dose on Day 15 of Cycle 3. […] The plasma concentrations of ipatasertib and its metabolite M1 was determined using a previously reported, validated liquid chromatography-tandem mass spectrometry assay (LC-MS/MS) ([Sutaria et al., 2022]). […] The sample analyses were performed at Labcorp Early Drug Development Laboratories, Inc. (Madison, WI, Unitd States) using a Shimadzu LC instrument equipped with an Agilent Polaris C8-A column (2.0 × 50 mm, 5 μm) interfaced with a Sciex API 4000 mass spectrometer operated in positive electrospray ionization mode. […] Noncompartmental PK analysis (NCA) was performed using the commercial software Phoenix WinNonlin (Certara Unitd States, Inc., Princeton, NJ, Unitd States, Version 8.1) to characterize the PK parameters of ipatasertib and M1 including maximal concentration (Cmax), time to maximal concentration (Tmax), area under the curve from time 0 to the last measurable concentration (AUC0-t). […] Non-compartmental PK analyses were performed using Phoenix(R) WinNonlin (Version 8.3, Certara). […] A linear mixed model with a fixed effect for treatment and a random effect for patients was used on the natural log-transformed PK parameters.

[4] = tested on: CYP3A; set-up: method as in Jing et al., 2022; details: ipatasertib 300 mg in the presence of palbociclib; ref Jing et al., 2022; cited from earlier work
[5] = cited from earlier work
[6] = tested on: CYP3A; details: 2021, cited from earlier work; remark: listed apart in the source
[7] = Palbociclib predose plasma concentrations (LC-MS/MS), Phase Ib study; type: in vivo, human; details: for Palbociclib plasma concentration, C2D15 predose / Palbociclib plasma concentration, C1D15 predose / Palbociclib plasma concentration, C3D15 predose: 125 mg, Geomean (geoCV%)
[8] = Palbociclib PK parameters estimated with established popPK model; type: in vivo, human
[9] = 300 mg QD with 125 mg palbociclib and fulvestrant vs alone
[10] = C1D15 (with palbociclib and fulvestrant) / C1D1 (ipatasertib alone)
[11] = human, plasma, oral, C1D1, ipatasertib 300 mg QD alone, N = 9, geometric mean (%geoCV)
[12] = ipatasertib coadministered with palbociclib and fulvestrant vs ipatasertib alone
[13] = ipatasertib 100 mg single dose with itraconazole, ref Sane et al.
[14] = additional patients for safety evaluation, N 9
[15] = palbociclib administered alone, ref U.S. Food and Drug Administration, 2014

SMILES: C[C@]12CC[C@@H]3c4ccc(O)cc4C[C@@H](CCCCCCCCC[S+]([O-])CCCC(F)(F)C(F)(F)F)[C@H]3[C@@H]1CC[C@@H]2O (some centres unmarked) [Fulvestrant]
- CYP3A inhibition / induction classification ([1]; ref U.S. Food and Drug Administration): not an inhibitor or inducer of CYP3A
- Patients with AE leading to discontinuation of the drug [2]: 0 Number of patients (%)
- Patients with AE leading to dose interruption of the drug [2]: 5 (25%) Number of patients (%)
- Patients with AE leading to dose reduction of the drug [2]: 0 Number of patients (%)
- Patients with AE related to the drug [2]: 16 (80%) Number of patients (%)
- AE considered related to the drug: anemia ([2]; triplet regimen, 20 patients): 10%
- AE considered related to the drug: asthenia ([2]; triplet regimen, 20 patients): 15%
- AE considered related to the drug: hot flush ([2]; triplet regimen, 20 patients): 10%

SMILES: CC(C)NC[C@@H](C(=O)N1CCN(c2ncnc3c2[C@H](C)C[C@H]3O)CC1)c1ccc(Cl)cc1 [Ipatasertib]
- CYP3A inhibition classification ([1]; in vitro, ref Malhi et al.): mild to moderate CYP3A inhibitor
- CYP3A4 substrate classification ([1]; ref Sane et al.): sensitive substrate
- Increase in AUC0-24,ss [3, 9]: 1.68 fold
- Increase in Cmax,ss [3, 9]: 1.49 fold
- AUC0-24,ss at 300 mg in presence of palbociclib relative to 400 mg in other clinical studies ([3]; 3,637 vs 2,920 ng*hr/mL): about 1.25 times
- AUC0-24,ss geometric mean ratio (GMR) (90% CI) [3, 10]: 1.68 (1.41, 2.00)
- Cmax,ss geometric mean ratio (GMR) (90% CI) [3, 10]: 1.49 (1.18, 1.88)
- Tmax ([3]; human, plasma, oral, C1D1, ipatasertib 300 mg QD alone): 1 h
- Tmax ([3]; human, plasma, oral, C1D15, ipatasertib 300 mg QD with palbociclib and fulvestrant): 1.9 h
- AUC0-24,ss [3, 11]: 2170 ng·h/mL
- Cmax [3, 11]: 294 ng/mL
- Increase in AUC0-24,ss [3, 12]: 68%
- Increase in Cmax,ss [3, 12]: 49%
- PBPK-predicted increase in AUC [4]: 48%
- PBPK-predicted increase in Cmax [4]: 23%
- Patients with AE leading to discontinuation of the drug [2]: 1 (5%) Number of patients (%)
- Patients with AE leading to dose interruption of the drug [2]: 16 (80%) Number of patients (%)
- Patients with AE leading to dose reduction of the drug [2]: 9 (45%) Number of patients (%)
- Patients with AE related to the drug [2]: 20 (100%) Number of patients (%)
- AE considered related to the drug: anemia ([2]; triplet regimen, 20 patients): 30%
- AE considered related to the drug: diarrhea ([2]; triplet regimen, 20 patients): 75%
- AE considered related to the drug: fatigue ([2]; triplet regimen, 20 patients): 25%
- AE considered related to the drug: nausea ([2]; triplet regimen, 20 patients): 70%
- AE considered related to the drug: neutropenia ([2]; triplet regimen, 20 patients): 30%
- AE considered related to the drug: neutrophil count decreased ([2]; triplet regimen, 20 patients): 25%
- AE considered related to the drug: platelet count decreased ([2]; triplet regimen, 20 patients): 30%
- AE considered related to the drug: rash ([2]; triplet regimen, 20 patients): 35%
- AE considered related to the drug: vomiting ([2]; triplet regimen, 20 patients): 45%
- Effective half-life ([5]; background statement, no reference printed with the sentence): approximately 24 h
- AUC0-24,ss ([5]; ipatasertib 400 mg in other clinical studies, ref Yoshida et al., 2021): 2,920 ng*hr/mL
- Dose proportionality of exposure ([5]; over the range of 200–800 mg, no reference printed with the sentence): dose-proportional
- Increase in AUC0-∞ with itraconazole [6, 13]: 5.45 fold
- Increase in Cmax with itraconazole [6, 13]: 2.26 fold
- Increase in AUC0-∞ of midazolam ([6]; single dose of ipatasertib 600 mg with midazolam, ref Malhi et al.): 2.22 fold

SMILES: CC(=O)c1c(C)c2cnc(Nc3ccc(N4CCNCC4)cn3)nc2n(C2CCCC2)c1=O [Palbociclib]
- Palbociclib plasma concentration, C2D15 predose ([7]; additional patients for safety evaluation, N 6): 83.2 (19.4) ng/mL
- Palbociclib plasma concentration, C1D15 predose [7, 14]: 73.8 (20.7) ng/mL
- Palbociclib plasma concentration, C3D15 predose [7, 14]: 67.5 (51.0) ng/mL
- Palbociclib plasma concentration, C1D15 predose ([7]; ipatasertib run-in group, N 9): 69.9 (57.2) ng/mL
- Palbociclib plasma concentration, C2D15 predose ([7]; ipatasertib run-in group, N 10): 76.9 (44.9) ng/mL
- Palbociclib plasma concentration, C3D15 predose ([7]; ipatasertib run-in group, N 10): 71.5 (43.5) ng/mL
- Palbociclib plasma concentration, C2D15 predose ([7]; total, N 16): 79.2 (36.4) ng/mL
- Palbociclib plasma concentration, C1D15 predose ([7]; total, N 18): 71.8 (40.8) ng/mL
- Palbociclib plasma concentration, C3D15 predose ([7]; total, N 19): 69.6 (45.7) ng/mL
- Cmin ([7]; palbociclib in this study with ipatasertib and fulvestrant (summary of Table 3)): approximately 70 ng/mL
- Patients with AE leading to discontinuation of the drug [2]: 1 (5%) Number of patients (%)
- Patients with AE leading to dose interruption of the drug [2]: 13 (65%) Number of patients (%)
- Patients with AE leading to dose reduction of the drug [2]: 10 (50%) Number of patients (%)
- Patients with AE related to the drug [2]: 20 (100%) Number of patients (%)
- AE considered related to the drug: anemia ([2]; triplet regimen, 20 patients): 40%
- AE considered related to the drug: asthenia ([2]; triplet regimen, 20 patients): 25%
- AE considered related to the drug: diarrhea ([2]; triplet regimen, 20 patients): 30%
- AE considered related to the drug: nausea ([2]; triplet regimen, 20 patients): 40%
- AE considered related to the drug: neutropenia ([2]; triplet regimen, 20 patients): 45%
- AE considered related to the drug: neutrophil count decreased ([2]; triplet regimen, 20 patients): 40%
- AE considered related to the drug: platelet count decreased ([2]; triplet regimen, 20 patients): 30%
- AE considered related to the drug: stomatitis ([2]; triplet regimen, 20 patients): 25%
- AUC0-24,ss [5, 15]: 1982 ng·h/mL
- Cmax,ss [5, 15]: 116 ng/mL
- AUC over 24 h dosing interval at steady state ([8]; human, plasma, oral, 125 mg, read-out: AUC0-24,ss (popPK-estimated)): 2600 ng·h/mL
- Cmax,ss (popPK-estimated) ([8]; palbociclib 125 mg with ipatasertib and fulvestrant, geometric mean (%CV)): 124 ng/mL
